Test results from patent US20100016360A1 (WYETH, priority 2008, published 2010).

Key:
Type in all cases: in vitro ADME
CYP2D6 = CYP2D6 (Homo sapiens, UniProt P10635); experiment: CYP2D6 inhibition
CYP3A4 = CYP3A4 (Homo sapiens, UniProt P08684); experiment: CYP3A4 inhibition
CYP2C9 = CYP2C9 (Homo sapiens, UniProt P11712); experiment: CYP2C9 inhibition
Chain of CYP2C9 (P11712 whole entry, species assumed): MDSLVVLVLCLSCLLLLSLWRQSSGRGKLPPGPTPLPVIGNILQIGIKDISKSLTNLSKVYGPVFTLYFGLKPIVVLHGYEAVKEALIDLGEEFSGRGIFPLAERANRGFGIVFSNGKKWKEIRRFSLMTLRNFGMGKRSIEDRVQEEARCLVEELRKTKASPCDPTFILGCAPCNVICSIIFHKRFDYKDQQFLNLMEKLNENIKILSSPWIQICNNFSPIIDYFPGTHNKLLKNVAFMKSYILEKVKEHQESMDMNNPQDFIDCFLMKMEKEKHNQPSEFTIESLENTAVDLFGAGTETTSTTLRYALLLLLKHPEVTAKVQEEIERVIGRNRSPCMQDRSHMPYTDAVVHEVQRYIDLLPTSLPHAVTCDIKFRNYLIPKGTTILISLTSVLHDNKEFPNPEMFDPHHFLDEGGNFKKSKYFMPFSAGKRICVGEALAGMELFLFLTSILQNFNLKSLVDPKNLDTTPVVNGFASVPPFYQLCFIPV

Chain of CYP2D6 (P10635 whole entry, species assumed): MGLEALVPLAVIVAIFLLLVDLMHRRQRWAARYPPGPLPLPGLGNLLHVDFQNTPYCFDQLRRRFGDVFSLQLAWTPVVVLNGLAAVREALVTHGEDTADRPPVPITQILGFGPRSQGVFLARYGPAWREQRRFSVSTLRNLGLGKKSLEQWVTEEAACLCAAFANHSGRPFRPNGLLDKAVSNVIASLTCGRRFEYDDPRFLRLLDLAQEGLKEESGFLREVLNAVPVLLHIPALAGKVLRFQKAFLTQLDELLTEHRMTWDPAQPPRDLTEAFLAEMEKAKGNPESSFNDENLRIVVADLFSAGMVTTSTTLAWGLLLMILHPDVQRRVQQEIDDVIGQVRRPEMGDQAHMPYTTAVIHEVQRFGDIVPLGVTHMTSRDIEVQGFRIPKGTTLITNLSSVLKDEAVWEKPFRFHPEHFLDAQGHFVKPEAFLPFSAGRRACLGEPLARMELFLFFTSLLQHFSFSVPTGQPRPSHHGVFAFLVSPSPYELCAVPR
Chain of CYP3A4 (P08684 whole entry, species assumed): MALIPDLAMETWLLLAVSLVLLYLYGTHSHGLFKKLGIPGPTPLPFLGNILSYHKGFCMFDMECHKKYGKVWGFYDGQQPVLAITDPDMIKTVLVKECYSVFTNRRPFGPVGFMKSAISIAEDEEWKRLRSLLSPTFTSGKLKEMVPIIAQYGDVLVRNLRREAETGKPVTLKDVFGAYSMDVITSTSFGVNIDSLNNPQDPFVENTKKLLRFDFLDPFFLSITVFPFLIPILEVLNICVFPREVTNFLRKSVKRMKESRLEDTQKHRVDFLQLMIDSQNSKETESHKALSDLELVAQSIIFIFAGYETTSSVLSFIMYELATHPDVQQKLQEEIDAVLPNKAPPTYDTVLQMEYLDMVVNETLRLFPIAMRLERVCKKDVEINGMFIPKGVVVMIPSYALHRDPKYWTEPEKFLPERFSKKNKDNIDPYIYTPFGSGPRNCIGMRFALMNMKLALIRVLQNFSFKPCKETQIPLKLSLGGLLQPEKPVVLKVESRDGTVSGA

Q: For `COc1ncccc1-c1ccc(NC(=O)NCCCCN2CCCCC2)cc1`, which CYP2D6 % inhibition (CYP2D6) is on record?
A: 8%

Q: And the CYP3A4 % inhibition (CYP3A4)?
A: −21%

Q: And the CYP2C9 % inhibition (CYP2C9)?
A: −36%
